Test in all cases: MIC, CLSI broth microdilution, Test Example 1
Type in all cases: cell-based

Test [1] concerns P. aeruginosa SR24837. As to conditions: PER-1 ESBL producing strain, cation-adjusted Mueller Hinton broth containing human apo-transferrin, 5×10^5 cfu/mL; for MIC: Pseudomonas aeruginosa, SR24837, read-out: Minimum Inhibitory Concentration (MIC) P. aeruginosa SR24837. On the procedure: (§1) Measurement of Minimum Inhibitory Concentration (MIC: μg/mL) was conducted according to CLSI (Clinical and Laboratory Standards Institute) method, and the amount of bacteria for inoculation was 5×10^5 cfu/mL, and cation-adjusted Mueller Hinton broth containing human apo-transferrin was used as a test medium, and the experiment was conducted using broth microdilution method. The bacteria used are listed below.

The test system of test [2] is K. pneumoniae ATCCBAA-1705. As to conditions: KPC-2 carbapenemase producing strain, cation-adjusted Mueller Hinton broth containing human apo-transferrin, 5×10^5 cfu/mL; for MIC: Klebsiella pneumoniae, ATCCBAA1705, read-out: Minimum Inhibitory Concentration (MIC) K. pneumoniae ATCCBAA-1705. The protocol:
as §1

Test [3] has as its system A. baumannii SR27323. As to conditions: OXA-23, OXA-58 carbapenemase producing strain, cation-adjusted Mueller Hinton broth containing human apo-transferrin, 5×10^5 cfu/mL; for MIC: Acinetobacter baumannii, SR27323, read-out: Minimum Inhibitory Concentration (MIC) A. baumannii SR27323. The protocol: as §1
For test [4], the system named is P. aeruginosa SR27060. As to conditions: IMP-1 MBL producing strain (carbapenem resistance strain), cation-adjusted Mueller Hinton broth containing human apo-transferrin, 5×10^5 cfu/mL; for MIC: Pseudomonas aeruginosa, SR27060, read-out: Minimum Inhibitory Concentration (MIC) P. aeruginosa SR27060. On the procedure:
as §1

In test [5] the test system is E. coli ATCCBAA-199. As to conditions: SHV-3 ESBL producing strain, cation-adjusted Mueller Hinton broth containing human apo-transferrin, 5×10^5 cfu/mL; for MIC: Escherichia coli, ATCCBAA199, read-out: Minimum Inhibitory Concentration (MIC) E. coli ATCC BAA-199. The protocol:
as §1

For test [6], the system named is E. coli ATCCBAA-200. As to conditions: SHV-4 ESBL producing strain, cation-adjusted Mueller Hinton broth containing human apo-transferrin, 5×10^5 cfu/mL; for MIC: Escherichia coli, ATCCBAA200, read-out: Minimum Inhibitory Concentration (MIC) E. coli ATCC BAA-200. On the procedure:
as §1

In test [7] the test system is P. aeruginosa SR24. As to conditions: Ceftazidime resistance strain, cation-adjusted Mueller Hinton broth containing human apo-transferrin, 5×10^5 cfu/mL; for MIC: Pseudomonas aeruginosa, SR24, read-out: Minimum Inhibitory Concentration (MIC) P. aeruginosa SR24.

Values after ≈ are worked out from the molar mass of the structure shown.

`CC(C)(O/N=C(\C(=O)N[C@@H]1C(=O)N2C(c3nnn[n-]3)=C(C[N+](C)(C)CCNC(=O)c3ccc(O)c(O)c3Cl)CS[C@H]12)c1csc(N)n1)C(=O)[O-].[Na+]` [Compound I-11]: the MIC in test [1] was 0.063 µg/mL; in test [2], no more than 0.031 µg/mL; in test [3] it was 0.25 µg/mL; in test [4] it was 1 µg/mL; in test [5] it was 0.125 µg/mL; in test [6], 0.5 µg/mL. Further, in test [7], the MIC came to 0.25 µg/mL.
For the compound `Nc1nc(/C(=N/O[C@@H](CC(=O)[O-])C(=O)[O-])C(=O)N[C@@H]2C(=O)N3C(c4nnn[n-]4)=C(C[N+]45CCC[C@H]4CN(C(=O)c4cc(O)c(O)c(Cl)c4)CC5)CS[C@H]23)cs1.[Na+].[Na+]` (some centres unmarked) [Compound I-4], the MIC in test [1] is 4 µg/mL; in test [2], no more than 0.031 µg/mL; in test [3] it was 0.5 µg/mL; in test [4], 0.5 µg/mL; in test [5] it was 0.125 µg/mL; in test [6] it was 0.5 µg/mL. The MIC in test [7] was 0.5 µg/mL.
Take `CC(C)(O/N=C(\C(=O)N[C@@H]1C(=O)N2C(c3nnn[n-]3)=C(C[N+]34CCC(CNC(=O)c5ccc(O)c(O)c5Cl)(CC3)CC4)CS[C@H]12)c1csc(N)n1)C(=O)[O-].[Na+]` [Compound I-10]: the MIC is 2 µg/mL in test [1]; no more than 0.031 µg/mL in test [2]; 0.5 µg/mL in test [3]; 2 µg/mL in test [4]; 0.5 µg/mL in test [5]; 1 µg/mL in test [6]. Moreover, the MIC in test [7] turned out to be 0.25 µg/mL.
For the compound `C[N+](C)(CCNC(=O)c1ccc(O)c(O)c1Cl)CC1=C(c2nnn[n-]2)N2C(=O)C(NC(=O)C(=NOC(CC(=O)[O-])C(=O)[O-])c3csc(N)n3)C2SC1.[Na+].[Na+]` (centres unmarked) [Compound I-92], in test [1], the “Minimum Inhibitory Concentration (MIC) P. aeruginosa SR24837” value came out at 0.25 µg/mL. Moreover, in test [2], the “Minimum Inhibitory Concentration (MIC) K. pneumoniae ATCCBAA-1705” value is reported as “≦0.031 μg/ml”. For the same compound, in test [3], the “Minimum Inhibitory Concentration (MIC) A. baumannii SR27323” value came out at 0.5 µg/mL. Moreover, in test [4], the “Minimum Inhibitory Concentration (MIC) P. aeruginosa SR27060” value was 2 µg/mL. Moreover, the “Minimum Inhibitory Concentration (MIC) E. coli ATCC BAA-199” value in test [5] amounted to 0.063 µg/mL. In test [6], the “Minimum Inhibitory Concentration (MIC) E. coli ATCC BAA-200” value worked out at 0.125 µg/mL. Besides, the “Minimum Inhibitory Concentration (MIC) P. aeruginosa SR24” value in test [7] came out at 0.25 µg/mL.
As for `CC(C)(O/N=C(\C(=O)N[C@@H]1C(=O)N2C(c3nnn[nH]3)=C(C[N+]3(CCNC(=O)c4cc(O)c(O)c(F)c4)CCCC3)CS[C@H]12)c1csc(N)n1)C(=O)[O-]` [Compound I-56], the MIC was 0.25 µg/mL (≈ 0.329 µM) in test [1]; no more than 0.031 µg/mL in test [2]; 0.5 µg/mL (≈ 0.658 µM) in test [3]; 0.5 µg/mL (≈ 0.658 µM) in test [4]; 0.125 µg/mL (≈ 0.165 µM) in test [5]; 0.25 µg/mL (≈ 0.329 µM) in test [6]. Also, the MIC in test [7] was no more than 0.031 µg/mL.
Regarding `CC(C)(O/N=C(\C(=O)N[C@@H]1C(=O)N2C(c3nnn[n-]3)=C(C[N+]34CCCC3(CNC(=O)c3ccc(O)c(O)c3Cl)CCC4)CS[C@H]12)c1cnc(N)s1)C(=O)[O-].[Na+]` (some centres unmarked) [Compound I-80], the MIC in test [1] is 0.125 µg/mL; in test [2], no more than 0.031 µg/mL; in test [3], 2 µg/mL; in test [4], 0.25 µg/mL; in test [5], 0.5 µg/mL; in test [6] it was 1 µg/mL. In addition, the MIC in test [7] was no more than 0.031 µg/mL.
For the compound `C[N+]1(CC2=C(c3nnn[n-]3)N3C(=O)[C@@H](NC(=O)/C(=N\O[C@@H](CC(=O)[O-])C(=O)[O-])c4csc(N)n4)[C@H]3SC2)[C@@H]2CC[C@H]1C[C@@H](NC(=O)c1ccc(O)c(O)c1Cl)C2.[Na+].[Na+]` (some centres unmarked) [Compound I-14], the MIC is 8 µg/mL in test [1]; no more than 0.031 µg/mL in test [2]; 0.125 µg/mL in test [3]; 1 µg/mL in test [4]; 0.25 µg/mL in test [5]; 1 µg/mL in test [6]. In test [7], the MIC came out at 0.5 µg/mL.
Turning to `CC(C)(O/N=C(\C(=O)N[C@@H]1C(=O)N2C(c3nnn[n-]3)=C(C[N+]34CCC[C@H]3CN(C(=O)c3cc(O)c(O)c(Cl)c3)CC4)CS[C@H]12)c1csc(N)n1)C(=O)[O-].[Na+]` (some centres unmarked) [Compound I-13], the MIC was 2 µg/mL in test [1]; no more than 0.031 µg/mL in test [2]; 2 µg/mL in test [3]; 0.5 µg/mL in test [4]; 0.5 µg/mL in test [5]; 1 µg/mL in test [6]. Besides, in test [7], the MIC came out at 0.125 µg/mL.

For the origin of these results see patent publication US9334289B2, “Cephem compound having catechol or pseudo-catechol structure” (SHIONOGI & CO., LTD., priority 2011, dated 2016).
